In patent US8304438B2, “Heteroarylacrylamides and their use as pharmaceuticals” (Sanofi, priority 2006, dated 2012):
Where a name gives a salt, the structure may show the parent alone.

test system: eNOS promoter; assay: Activation of eNOS transcription (eNOS promoter firefly luciferase reporter gene assay); format: cell-based; settings: human endothelial cell line stable transfected with eNOS promoter-luciferase construct; 18 h incubation; EC50 determined graphically; read-out: EC50 values of transcription induction ratios (TIR)
Procedure: Activation of eNOS transcription was measured as described in detail by L^1 et al., “Activation of protein kinase C alpha and/or epsilon enhances transcription of the human endothelial nitric oxide synthase gene”, Mol. Pharmacol. 53 (1998) 630. Briefly, a 3.5 kB long fragment 5′ of the starting codon of the eNOS gene was cloned, sequenced and cloned in firefly luciferase expression plasmids to monitor activation of the eNOS promoter by reporter gene activity. A human endothelial cell line stable transfected and expressing this promoter-reporter construct was used for compound testing. Cells were incubated for 18 h with the compounds.
All compounds were dissolved in sterile dimethyl sulfoxide (DMSO). A final concentration of 0.5% DMSO in complete medium was allowed. Induction of reporter gene expression in these cells was measured using a standard luciferase assay system (Promega, Cat. No. E150) according to the manufacturer's instructions. Luciferase induction in cells incubated with compounds were compared to those incubated with solvent alone. The ratio of both activities (transcription induction ratio, TIR) was plotted as a function of compound concentration. Typically, TIR values started at low concentrations at a ratio of 1, indicating no compound effect, and extended up to a maximum TIR value TIR(max) which indicates the increase of the eNOS transcription. EC50 values of transcription induction ratios as a function of compound concentration were determined graphically.

EC50	Compound
500 to 5000 nM	C/C(=C\C(=O)N1CCCCC1)c1cc(-c2ccccc2F)cs1 [Example 123, 3-[4-(2-Fluoro-phenyl)-thiophen-2-yl]-1-(piperidin-1-yl)-but-2-en-1-one]
500 to 5000 nM	O=C(/C=C/c1ccc(-c2cc3ccccc3s2)nc1)N1CCCCC1 [Example 125, 3-(6-(Benzo[b]thiophen-2-yl)-pyridin-3-yl)-1-(piperidin-1-yl)-propenone]
< 500 nM	CC(C)N(C(=O)/C=C/c1nc(-c2ccc(F)cc2)cs1)C(C)C [Example 145, 3-[4-(4-Fluoro-phenyl)-thiazol-2-yl]-N,N-diisopropyl-acrylamide]
< 500 nM	CC(C)(C)NC(=O)/C=C/c1nc(-c2ccc(F)cc2)cs1 [Example 146, N-tert-Butyl-3-[4-(4-fluoro-phenyl)-thiazol-2-yl]-acrylamide]
500 to 5000 nM	O=C(/C=C/c1ccc(-c2ccccc2F)s1)Nc1ccccc1 [Example 150, 3-[5-(2-Fluoro-phenyl)-thiophen-2-yl]-N-phenyl-acrylamide]

The next lines start with the molecule.

Compound	EC50
O=C(/C=C/c1cnc2ccccc2c1)N1CCCCC1 [Example 1, 1-(Piperidin-1-yl)-3-(quinolin-3-yl)-propenone]	500 to 5000 nM
O=C(/C=C/c1ccc(-c2ccccc2OC(F)(F)F)o1)N1CCCCC1 [Example 13, 1-(Piperidin-1-yl)-3-[5-(2-trifluoromethoxy-phenyl)-furan-2-yl]-propenone]	500 to 5000 nM
O=C(/C=C/c1cc(-c2ccccc2F)cs1)N1CCCCC1 [Example 15, 3-[4-(2-Fluoro-phenyl)-thiophen-2-yl]-1-(piperidin-1-yl)-propenone]	< 500 nM
O=C(/C=C/c1ccc(Oc2ccc(F)cc2)nc1)N1CCCCC1 [Example 76, 3-[6-(4-Fluoro-phenoxy)-pyridin-3-yl]-1-(piperidin-1-yl)-propenone Trifluoroacetic Acid Salt]	500 to 5000 nM
C/C(=C\C(=O)N(C)C)c1ccc(-c2ccccc2F)nc1 [Example 110, 3-[6-(2-Fluoro-phenyl)-pyridin-3-yl]-but-2-enoic Acid Dimethylamide Trifluoroacetic Acid Salt]	< 500 nM
O=C(/C=C/c1nc(-c2ccc(F)cc2)cs1)Nc1ccccn1 [Example 116, 3-[4-(4-Fluoro-phenyl)-thiazol-2-yl]-N-(pyridin-2-yl)-acrylamide]	500 to 5000 nM
